For 8 molecules, EC50 results are on record in US10800789B2, “Antiviral compounds” (Gilead Pharmasset LLC, priority 2012, dated 2020).

Assay [1] relates to stable HCV 1b RLuc replicon cells (dicistronic genotype 1b Con1 replicon). In words: Renilla luciferase HCV replicon reporter assay, genotype 1b. Type of assay: cell-based. Particulars: Hepatitis C virus, 72 h, stable 1b Con1 RLuc replicon cells, 72 hours; read-out: 1b. The method, boiled down:
(§1)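 Cells carrying the stable or transiently transfected (Huh-Lunet) dicistronic RLuc replicons received 3-fold serial compound dilutions from 10 mM DMSO stocks. After 72 h, cells were lysed and Renilla luciferase read. DMSO served as the no-inhibition control and ITMN-191 above 100×EC50 as the positive control; EC50 by non-linear regression.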

Assay [2] concerns stable HCV 1a RLuc replicon cells (dicistronic genotype 1a H77 replicon). In words: Renilla luciferase HCV replicon reporter assay, genotype 1a. Type of assay: cell-based. The conditions noted are these: Hepatitis C virus, 72 h, stable 1a H77 RLuc replicon cells. The method, boiled down:
as §1

For assay [3], the system named is stable HCV 2a JFH-1 Rluc replicon cells (L31 present in NS5A). Nature of the assay: Renilla luciferase HCV replicon reporter assay, genotype 2a JFH-1. Type of assay: cell-based. Particulars: Hepatitis C virus. The essentials: as §1
A general note: A replicon is a self-replicating genome or part of one, used to study replication in cells.

Assay [4] deals with NS5A chimeric genotype 2a JFH-1 replicon with genotype 2a J6 strain NS5A gene (M31 present). Nature of the assay: Replicon assay, genotype 2a J6 NS5A chimera. Type of assay: cell-based, HCV. Particulars: Hepatitis C virus. The method, boiled down:
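EC50 was fitted by non-linear regression to Renilla luciferase signal after 72 h of exposure to 3-fold serially diluted compound (10 mM DMSO stocks). Controls were DMSO (none) and ITMN-191 above 100×EC50 (full). Chimeric 2a replicons were used either stable or transiently transfected into Huh-Lunet cells.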

Assay [5] relates to NS5A chimeric genotype 2a JFH-1 replicon with genotype 2b MD2b-1 strain NS5A gene (M31 present). In words: Replicon assay, genotype 2b NS5A chimera. The conditions noted are these: Hepatitis C virus. The assay is classed as cell-based, HCV. The method, boiled down:
as §1

In assay [6] the test system is NS5A chimeric genotype 1b Con1 replicon with genotype 3a S52 strain NS5A gene. Nature of the assay: Replicon assay, genotype 3a NS5A chimera. Type of assay: cell-based, HCV. The conditions noted are these: Hepatitis C virus.
Assay [7] concerns NS5A chimeric genotype 1b Con1 replicon with genotype 4a ED43 strain NS5A gene. Nature of the assay: Replicon assay, genotype 4a NS5A chimera. Type of assay: cell-based, HCV. Particulars: Hepatitis C virus.
The mark [8] stands for this setting: read-out: 2a JFH (nM), genotype 2a JFH-1 replicon (L31 in NS5A), stable cells.
[9] abbreviates: read-out: 2a JFH, stable 2a JFH-1 Rluc replicon cells, L31 in NS5A, activity range.
[10] abbreviates: read-out: 2a J6 (t) (nM), genotype 2a J6 NS5A chimeric replicon (M31), transiently transfected (t) into Huh-Lunet cells.
The mark [11] stands for this setting: read-out: 2a J6 (t), transiently transfected (t) into Huh-Lunet cells, activity range.
The mark [12] stands for this setting: 2BS, read-out: 2b (s), stably replicating replicon cells (s), activity range.
[13] abbreviates: read-out: 2b (s) (nM), genotype 2b MD2b-1 NS5A chimeric replicon (M31), stably replicating replicon cells (s).
Where [14] appears, read: read-out: 3a (s) (nM), genotype 3a NS5A chimeric replicon, stable replicon cells (s).
The mark [15] stands for this setting: read-out: 3a (s), (s), activity range.
Setting [16] is: read-out: 4a (s) (nM), genotype 4a NS5A chimeric replicon, stable replicon cells (s).
Setting [17] is: read-out: 4a (s), (s), activity range.

Read-outs that look alike come from different tables or passages of the source.

As to `CC[C@H]1CC[C@@H](c2nc3ccc4cc5c(cc4c3[nH]2)OCc2cc(-c3cnc([C@@H]4CC[C@H](CC)N4C(=O)[C@@H](NC(=O)OC)C4CCOCC4)[nH]3)ccc2-5)N1C(=O)[C@@H](NC(=O)OC)C(C)C` [II], the EC50 was 0.033 nM in assay [1]; 0.024 nM in assay [2]; under 0.1 nM in assay [2] (activity range); 0.029 nM in assay [3] (setting [8]); under 0.1 nM in assay [3] (setting [9]); 0.209 nM in assay [4] (setting [10]). Besides, the EC50 in assay [4] (setting [11]) was 0.1 to 0.999 nM; in assay [5] (setting [12]), 0.1 to 0.999 nM; in assay [5] (setting [13]), 0.197 nM; in assay [6] (setting [14]), 0.701 nM; in assay [6] (setting [15]) it was 0.1 to 0.999 nM; in assay [7] (setting [16]), 0.016 nM. For the same molecule, the EC50 in assay [7] (setting [17]) is under 0.1 nM.

For the molecule `CC[C@H]1CC[C@@H](c2ncc(-c3ccc4c(c3)COc3cc5c(ccc6nc([C@@H]7C[C@@H]8CCC[C@@H]8N7C(=O)[C@@H](NC(=O)OC)C(C)C)[nH]c65)cc3-4)[nH]2)N1C(=O)[C@@H](NC(=O)OC)C1CCOCC1` [IN], the EC50 is 0.028 nM in assay [1]; 0.021 nM in assay [2]; under 0.1 nM in assay [2] (activity range); 0.03 nM in assay [3] (setting [8]); under 0.1 nM in assay [3] (setting [9]); 0.044 nM in assay [4] (setting [10]). Also, the EC50 in assay [4] (setting [11]) is under 0.1 nM; in assay [5] (setting [12]), 0.1 to 0.999 nM; in assay [5] (setting [13]), 0.109 nM; in assay [6] (setting [14]), 0.212 nM; in assay [6] (setting [15]) it was 0.1 to 0.999 nM; in assay [7] (setting [16]), 0.023 nM. In addition, the EC50 in assay [7] (setting [17]) was under 0.1 nM.

As for `CC[C@H](C)[C@H](NC(=O)OC)C(=O)N1[C@H](c2nc3ccc4cc5c(cc4c3[nH]2)OCc2cc(-c3cnc([C@@H]4CC[C@H](C)N4C(=O)[C@@H](NC(=O)OC)C4CCOCC4)[nH]3)ccc2-5)C[C@@H]2CCC[C@@H]21` [IO], the EC50 in assay [1] was 0.043 nM; in assay [2], 0.027 nM; in assay [2] (activity range), under 0.1 nM; in assay [3] (setting [8]), 0.033 nM; in assay [3] (setting [9]) it was under 0.1 nM; in assay [4] (setting [10]) it was 0.07 nM. In addition, the EC50 in assay [4] (setting [11]) is under 0.1 nM; in assay [5] (setting [12]), 0.1 to 0.999 nM; in assay [5] (setting [13]), 0.118 nM; in assay [6] (setting [14]) it was 0.293 nM; in assay [6] (setting [15]), 0.1 to 0.999 nM; in assay [7] (setting [16]), 0.03 nM. Also, in assay [7] (setting [17]), the EC50 is under 0.1 nM.

In the case of `CC[C@H]1CC[C@@H](c2ncc(-c3ccc4c(c3)COc3cc5c(ccc6nc([C@@H]7C[C@@H]8CCC[C@@H]8N7C(=O)[C@@H](NC(=O)OC)C7CCOCC7)[nH]c65)cc3-4)[nH]2)N1C(=O)[C@@H](NC(=O)OC)C(C)C` [IQ], the EC50 is 0.019 nM in assay [1]; 0.018 nM in assay [2]; under 0.1 nM in assay [2] (activity range); 0.023 nM in assay [3] (setting [8]); under 0.1 nM in assay [3] (setting [9]); 0.046 nM in assay [4] (setting [10]). Moreover, the EC50 in assay [4] (setting [11]) was under 0.1 nM; in assay [5] (setting [12]) it was under 0.1 nM; in assay [5] (setting [13]), 0.069 nM; in assay [6] (setting [14]), 0.045 nM; in assay [6] (setting [15]), under 0.1 nM; in assay [7] (setting [16]) it was 0.021 nM. The EC50 in assay [7] (setting [17]) is under 0.1 nM.

For the molecule `CC[C@H]1CC[C@@H](c2nc3ccc4cc5c(cc4c3[nH]2)OCc2cc(-c3cnc([C@@H]4CC[C@H](C)N4C(=O)[C@@H](NC(=O)OC)C4CCOCC4)[nH]3)ccc2-5)N1C(=O)[C@@H](NC(=O)OC)C(C)C` [IR], the EC50 in assay [1] is 0.021 nM; in assay [2], 0.018 nM; in assay [2] (activity range), under 0.1 nM; in assay [3] (setting [8]), 0.018 nM; in assay [3] (setting [9]) it was under 0.1 nM; in assay [4] (setting [10]), 0.084 nM. In addition, the EC50 in assay [4] (setting [11]) is under 0.1 nM; in assay [5] (setting [12]) it was under 0.1 nM; in assay [5] (setting [13]) it was 0.081 nM; in assay [6] (setting [14]), 0.091 nM; in assay [6] (setting [15]), under 0.1 nM; in assay [7] (setting [16]) it was 0.017 nM. Moreover, the EC50 in assay [7] (setting [17]) was under 0.1 nM.

For `CC[C@H]1CC[C@@H](c2nc3ccc4cc5c(cc4c3[nH]2)OCc2cc(-c3cnc([C@@H]4C[C@H](C)CN4C(=O)[C@@H](NC(=O)OC)C(C)C)[nH]3)ccc2-5)N1C(=O)[C@@H](NC(=O)OC)C1CCOCC1` [IS], the EC50 in assay [1] was 0.021 nM; in assay [2] it was 0.017 nM; in assay [2] (activity range), under 0.1 nM; in assay [3] (setting [8]), 0.018 nM; in assay [3] (setting [9]) it was under 0.1 nM; in assay [4] (setting [10]), 0.052 nM. The EC50 in assay [4] (setting [11]) is under 0.1 nM; in assay [5] (setting [12]), under 0.1 nM; in assay [5] (setting [13]), 0.083 nM; in assay [6] (setting [14]) it was 0.174 nM; in assay [6] (setting [15]), 0.1 to 0.999 nM; in assay [7] (setting [16]) it was 0.015 nM. In addition, the EC50 in assay [7] (setting [17]) is under 0.1 nM.

`CCC[C@H]1CC[C@@H](c2nc3ccc4cc5c(cc4c3[nH]2)OCc2cc(-c3cnc([C@@H]4CC[C@H](C)N4C(=O)[C@@H](NC(=O)OC)C(C)C)[nH]3)ccc2-5)N1C(=O)[C@@H](NC(=O)OC)C1CCOCC1` [IV]: the EC50 is 0.053 nM in assay [1]; 0.045 nM in assay [2]; under 0.1 nM in assay [2] (activity range); 0.055 nM in assay [3] (setting [8]); under 0.1 nM in assay [3] (setting [9]); 0.068 nM in assay [4] (read-out: 2a J6 (s) (nM), genotype 2a J6 NS5A chimeric replicon (M31), stably replicating replicon cells (s)). In addition, the EC50 in assay [4] (read-out: 2a J6 (s), stably replicating replicon cells (s), activity range) is under 0.1 nM; in assay [5] (setting [12]), 0.1 to 0.999 nM; in assay [5] (setting [13]), 0.426 nM; in assay [6] (setting [14]), 0.236 nM; in assay [6] (setting [15]), 0.1 to 0.999 nM; in assay [7] (setting [16]) it was 0.018 nM. Moreover, in assay [7] (setting [17]), the EC50 was under 0.1 nM.

As to `COC(=O)N[C@H](C(=O)N1[C@H](c2ncc(-c3ccc4c(c3)COc3cc5c(ccc6nc([C@@H]7CC[C@H](C)N7C(=O)[C@@H](NC(=O)OC)C7CCOCC7)[nH]c65)cc3-4)[nH]2)C[C@@H]2CCC[C@@H]21)C(C)C` [IY], the EC50 in assay [1] was 0.03 nM; in assay [2] it was 0.023 nM; in assay [2] (activity range), under 0.1 nM; in assay [3] (setting [8]), 0.012 nM; in assay [3] (setting [9]), under 0.1 nM; in assay [4] (setting [10]) it was 0.047 nM. Moreover, the EC50 in assay [4] (setting [11]) was under 0.1 nM; in assay [5] (setting [12]), under 0.1 nM; in assay [5] (setting [13]) it was 0.069 nM; in assay [6] (setting [14]), 0.045 nM; in assay [6] (setting [15]), under 0.1 nM; in assay [7] (setting [16]), 0.019 nM. Moreover, the EC50 in assay [7] (setting [17]) is under 0.1 nM.
